The assay deals with SARS-CoV 3CL^pro (Severe acute respiratory syndrome coronavirus, UniProt P0C6X7). It is filed as biochemical.

Peptide text beside a SMILES is read from it. * marks the point of attachment. Cbz = O=C(OCc1ccccc1)*; CF3 = FC(F)(F)*

In the case of `CC(C)C[C@H](NC(=O)[C@@H](NC(=O)[C@H](C)NC(=O)OCc1ccccc1)C(C)C)C(=O)N[C@@H](CCC(N)=O)C(=O)C(F)(F)F` [Compound 4, (S)-4-[N-(Benzyloxycarbonyl)-L-alanyl-L-valyl-L-leucyl]amino-6,6,6-trifluoro-5-oxohexanamide] (Cbz-AVLQ-CF3), the “inhibitory activity in words” value is “moderate SARS-CoV 3CL^pro inhibitors”.

Values taken from article PMC7111793 (Tetrahedron, 2006).
